The source of these data is patent publication EP0777471B1, “INHIBITION OF LEUKOTRIENE BIOSYNTHESIS WITH UREA DERIVATIVES” (MINNESOTA MINING AND MANUFACTURING COMPANY, priority 1994, dated 1996).

In assay [1] the test system is production of Leukotriene B4 (LTB4). As to the kind of experiment: Dog ex vivo Leukotriene B4 inhibition (oral dosing, blood challenged with calcium ionophore). The class given is in vivo, beagle dogs. The following applies: each entry one dog, negative = stimulation of LTB4 production; for % Inhibition 1 hour / % Inhibition 2 hour / % Inhibition 4 hour / % Inhibition 6 hour: 5 mg/Kg; for % Inhibition 4 hour: 4 hour post dose; for % Inhibition 6 hour: 6 hour post dose; for inhibition at 5 mg/kg: Canis lupus familiaris, po. The protocol: The test method described below measures the ability of a compound when administered orally to dogs to inhibit the production of Leukotriene B4 (LTB4) in their blood which is drawn and challenged at selected time points.
The test is conducted in beagle dogs (male and female; about 10 Kg). Prior to starting, the neck area of the beagle is shaved to allow easy access to the jugular vein. A 3-4 mL sample of blood is drawn from the jugular vein into a heparinized vacutainer. The dog is then dosed using a tube long enough to reach its stomach. The compound is dissolved in PEG 400 at a concentration such that the appropriate dose can be administered in approximately 5 mL. Immediately after the compound is given, a flush using 5 mL of vehicle is given to rinse the dosing tube. At selected time points following the dose, a 3-4 mL sample of blood is drawn.
The blood samples that have been drawn are challenged as soon as possible. A 0.5 mL portion of blood is aliquoted into 3 tubes (1 mL microtiter tubes). A 1 µL portion of 25 mM calcium ionophore in dimethyl sulfoxide is added to 2 of the tubes. A 1 µL portion of dimethyl sulfoxide is added to the third tube. The tubes are lightly mixed then placed in a 37°C water bath for 30 minutes. The tubes are centrifuged at 11,000 rpm for 3 minutes and the plasma supernatant is transferred to clean tubes. A 50 µL portion of this plasma is added to a I mL microtiter tube containing 200 µL of methanol. The tubes are placed in the freezer at -20°C for at least 1 hour then centrifuged at 2000 rpm for 10 minutes. A 10 µL portion of the methanol supematant is dried under vacuum at ambient temperature and then reconstituted in LTB4 buffer. The amount of LTB4 in the sample is determined by radioimmunoassay performed according to the manufacturer's (Advanced Magnetics; Cambridge, MA) instructions. Percent inhibition values are obtained by comparing the level of LTB4 in the post-dose sample to the level in the pre-dose sample according to the equation below. % Inhibition =((LTB4 predose) - (LTB4 postdose))/((LTB4 predose))X 100 [formula]
A number of the compounds that are useful in the practice of the method of the invention were tested. The results are shown in Table 15 below where each entry represents the results from one dog. A negative number indicates stimulation of LTB4 production. All compounds were tested at a dose of 5 mg/Kg.

Assay [2] concerns production of Leukotriene C4 in mouse peritoneal macrophages. The experiment in a line: In vitro mouse peritoneal macrophage Leukotriene C4 inhibition (zymosan-stimulated, LTC4 radioimmunoassay). The class given is cell-based. The following applies: Zymosan 50 µg/mL. The protocol:
The test method described below measures the ability of compounds to inhibit the production of Leukotriene C4 in mouse peritoneal macrophages.
Mice (female, CD-1, weighing 25 g) are euthanized by exposure to carbon dioxide. The peritoneal cavity is exposed by peeling back the abdominal skin. A 5 mL portion of media (M199 containing 1% fetal bovine serum, 100 units/mL of penicillin, 100 µg/mL of streptomycin, 20 units/mL of heparin and no glutamine) is injected into the exposed peritoneal cavity of each mouse. The lavage fluid is removed and pooled to yield approximately1 X 10^6 macrophages/mL. A 2 mL portion of lavage fluid is added to each well of a 24 well sterile multidish and the macrophages are allowed to adhere to the plate for 2 hours at 37°C in a 5% carbon dioxide atmosphere. The media is removed and each well is washed with 2 mL of phosphate buffered saline (PBS). A 1 mL portion of media, without heparin, but containing 5 µCi/mL of 3H-myoinositol is added to each well and the plates are incubated overnight at 37°C in a 5% carbon dioxide atmosphere. The media is removed and the cells are washed twice with 2 mL portions of PBS. A 1 mL portion of Puck's saline formulation A containing 1 mM calcium chloride, 1 mM magnesium chloride and 10 mM lithium chloride is added to each well. (The Puck's formulation is made first as a 10X solution which contains 4 g of potassium chloride, 80 g of sodium chloride and 10 g of glucose per liter. The Puck's saline formulation A is made using 10 mL of the 10X Puck's formulation, 0.47 mL of 7.5% sodium bicarbonate and 2 mL of 1M N-2-hydroxyethylpiperazine-N'-2-ethanesulfonic acid per 100 mL.)
Compounds are dissolved in dimethyl sulfoxide. Compounds are tested at concentrations of 10, 1 and 0.1 µM. Each concentration is tested in duplicate.
A 1 µL portion of compound solution or vehicle (DMSO) is added to each well and the plates are incubated for 15 minutes at 37°C in a 5% carbon dioxide atmosphere. Zymosan is then added to provide a final concentration of 50 µg/mL in each well and the plate is incubated for 1 to 2 hours at 37°C in a 5% carbon dioxide atmosphere.
Following incubation 200 µL portions of media are transferred to 12 X 75 mm tubes. The tubes are either assayed immediately or stored at -20°C until they can be assayed.
The media is assayed for the presence of Leukotriene C4 by radioimmunoassay which is performed according to the manufacturer's (Advanced Magnetics; Cambridge, MA) instructions.

The test system of assay [3] is production of Leukotriene B4. As to the kind of experiment: Rat ex vivo Leukotriene B4 inhibition (oral dosing, blood challenged with A23187). The class given is in vivo, Rats. Conditions: two hours post dose. The protocol:
The test method described below measures the ability of a compound when administered orally to rats to inhibit the production of Leukotriene B4 in their blood which is drawn and challenged.
Rats (CD, male, non-fasted, 250 g) are lightly anesthetized with carbon dioxide and an approximately 0.75 mL sample of whole blood is obtained via cardiac puncture. The sample is dispensed into 12 X 75 mm polypropylene tubes containing 8-10 µL of 10,000 units/mL heparin, mixed and then maintained on ice. The rats are allowed to recover approximately one hour then dosed orally with compound dissolved in PEG 400 at a 5 mL/Kg volume. Five (5) rats are utilized per group. Two (2) hours post dose the rats are again anesthetized with carbon dioxide and the blood sampled again via cardiac puncture.
Duplicate 200 µL portions of blood are added to 1.0 mL polypropylene tubes. A 10 µL portion of 1mM A23187 Calcium Ionophore in dimethyl sulfoxide/Tris buffer is added to each tube. The tubes are gently vortexed then incubated in a 37°C water bath for 30 minutes. The tubes are then centrifuged at 4000 rpm for 10 minutes. 50 µL portions of plasma are transferred to 1.0 mL tubes containing 200 µL of methanol. The tubes are vortexed then placed in the freezer overnight.
The tubes are removed from the freezer then centrifuged at 4000 rpm for 10 minutes. […] portions of the methanol/plasma supernatant and 10 µL methanol dilutions of LTB4 standard curve are transferred to 96 well v-bottom microtiter plates. The plates are vacuum dried at 40°C. A 40 µL portion of LTB4 radioimmunoassay buffer is added to each well. The plate is bath sonicated for 5 minutes then assayed according to the manufacturer's (Advanced Magnetics; Cambridge, MA) instructions. Percent inhibition values are obtained by comparing the level of LTB4 in the post-dose samples to the level in the pre-dose samples according to the equation below. % Inhibition =((LTB4 pre-dose) - (LTB4 post-dose))/((LTB4 pre-dose))X 100 [formula]

Setting [4] is: 1 h, 1 hour post dose, read-out: % Inhibition 1 hour.
The mark [5] stands for this setting: 2 h, 2 hour post dose, read-out: % Inhibition 2 hour.

Where “and” joins values, the source holds several entries; their conditions need not be identical. Equal values may be shown once. Read-outs that look alike come from different tables or passages of the source. Bounds are passed on as bounds.

On to `CC(C)N(O)C(=O)Nc1cccc(S(C)(=O)=O)c1` [Compound 60, 1-Hydroxy-1-(1-methylethyl)-3-[3-(methylsulfonyl)phenyl]urea], for which the “% Inhibition 1 hour” value in assay [1] (1 hour post dose) worked out at 97%. Also, in assay [1] (2 hour post dose), the “% Inhibition 2 hour” value came out at 52%. In addition, in assay [1], the “% Inhibition 4 hour” value is -79% and 49%; the “% Inhibition 6 hour” value is -95% and 76%. The inhibition at 5 mg/kg in assay [1] (setting [4]) was found to be 100%.
In turn, `CCC(CC)N(O)C(=O)Nc1ccc(OCCCc2ccccc2)cc1` [Compound 82, 1-Hydroxy-1-(1-ethylpropyl)-3-[4-(3-phenylpropyloxy)phenyl]urea] gave an IC50 in assay [2] of less than 1000 nM.
For the compound `CCC(CC)N(O)C(=O)Nc1ccc(Br)cc1` [Compound 41, 3-(4-Bromophenyl)-1-(1-ethylpropyl)-1-hydroxyurea], the “%I” value in assay [3] (50 mg/Kg) stood at 14%.
On the same count and under the same terms, under `CN(O)C(=O)Nc1ccc([S+](C)[O-])cc1` (centres unmarked) [Compound 64, 1-Hydroxy-1-methyl-3-[4-(methylsulfinyl)phenyl]urea] stands 88%.
In assay [2], `CCC(CC)N(O)C(=O)Nc1ccc(Oc2ccccc2)cc1` [Compound 72, 1-Hydroxy-1-(1-ethylpropyl)-3-(4-phenoxyphenyl)urea] came in with an IC50 of less than 1000 nM.
`CCCCC(CC)CN(O)C(=O)Nc1ccccc1` (centres unmarked) [Compound 47, 1-(2-ethylhexyl)-1-hydroxy-3-phenylurea]: the “%I” value in assay [3] (50 mg/Kg) was 16%.
Still for that read-out and setting: under `COc1cc(NC(=O)N(O)C(C)C)cc(OC)c1OC` [Compound 66, 1-Hydroxy-1-(1-methylethyl)-3-(3,4,5-trimethoxyphenyl)urea] stands 61%.
In turn, `CCCC(C)N(O)C(=O)Nc1ccccc1` (centres unmarked) [Compound 68, 1-Hydroxy-1-(1-methylbutyl)-3-phenylurea] came in with an IC50 in assay [2] of less than 1000 nM.
Same read-out and setting: as for `CCC(CC)N(O)C(=O)Nc1ccc(OCC2CCCCC2)cc1` [Compound 81, 1-Hydroxy-1-(1-ethylpropyl)-3-[4-(cyclohexylmethoxy)phenyl]urea], the figure is less than 1000 nM.
For `O=C(Nc1ccccc1)N(O)C1CCCC1` [Compound 46, 1-cyclopentyl-1-hydroxy-3-phenylurea], the “%I” value in assay [3] (50 mg/Kg) amounted to 17%. In addition, the “% Inhibition 1 hour” value in assay [1] (1 hour post dose) came out at 77%. The “% Inhibition 2 hour” value in assay [1] (2 hour post dose) is given as 58%. In addition, in assay [1], the “% Inhibition 4 hour” value was 11% and 2%; the “% Inhibition 6 hour” value was -23% and 46%. Further, the inhibition at 5 mg/kg in assay [1] (setting [4]) was 80%. Further, the inhibition at 5 mg/kg in assay [1] (setting [5]) amounted to 64%.
Turning to `CCCCCN(O)C(=O)Nc1ccc(CCCC)cc1` [Compound 57, 3-(4-Butylphenyl)-1-hydroxy-1-pentylurea], in assay [3] (50 mg/Kg), the “%I” value amounted to 35%.
On the same count and under the same terms, under `CCCCc1ccc(NC(=O)N(C)O)cc1` [Compound 12, 3-(4-butylphenyl)-1-hydroxy-1-methylurea] stands 42%.
Take `CCCCc1ccc(NC(=O)N(O)C(C)C)cc1` [Compound 27, 3-(4-butylphenyl)-1-hydroxy-1-(1-methylethyl)urea]: the “%I” value in assay [3] (10 mg/Kg) was 23%; in assay [3] (25 mg/Kg), 5%; in assay [3] (50 mg/Kg) it was 53% and 75%.
Regarding `COc1ccccc1NC(=O)N(O)C(C)C` [Compound 29, 1-hydroxy-3-(2-methoxyphenyl)-1-(1-methylethyl)urea], the “%I” value in assay [3] (50 mg/Kg) turned out to be 61%.
Regarding `CC(C)N(O)C(=O)Nc1cccc([S+](C)[O-])c1` (centres unmarked) [Compound 61, 1-Hydroxy-1-(1-methylethyl)-3-[3-(methylsulfinyl)phenyl]urea], in assay [1] (2 hour post dose), the “% Inhibition 2 hour” value came out at 99%. Besides, in assay [1], the “% Inhibition 4 hour” value was 29% and -2%; the “% Inhibition 6 hour” value was -32% and 22%. The inhibition at 5 mg/kg in assay [1] (setting [4]) amounted to 100%. Besides, the inhibition at 5 mg/kg in assay [1] (setting [5]) stood at 100%.
On to `CN(O)C(=O)Nc1ccc(S(C)(=O)=O)cc1` [Compound 65, 1-Hydroxy-1-methyl-3-[4-(methylsulfonyl)phenyl]urea], for which, in assay [3] (50 mg/Kg), the “%I” value came to 93%.
Consider `CCC(CC)N(O)C(=O)Nc1ccc(-c2ccccc2)cc1` [Compound 83, 1-Hydroxy-1-(1-ethylpropyl)-3-(biphenyl-4-yl)urea], for which the IC50 in assay [2] was less than 1000 nM.
Turning to `CCC(CC)N(O)C(=O)Nc1ccc(C(=O)c2ccccc2)cc1` [Compound 79, 1-Hydroxy-1-(1-ethylpropyl)-3-(4-benzoylphenyl)urea], in assay [2], the IC50 was less than 1000 nM.
On to `CC(C)(C)CCN(O)C(=O)Nc1ccccc1` [Compound 48, 1-(3,3-dimethylbutyl)-1-hydroxy-3-phenylurea], for which the “%I” value in assay [3] (50 mg/Kg) came out at 2%.
Still for that read-out and setting: as for `COc1ccc(OC)c(NC(=O)N(O)C(C)C)c1` [Compound 28, 3-(2,5-dimethoxyphenyl)-1-hydroxy-1-(1-methylethyl)urea], the figure is 29%.
As for `CCC(CC)N(O)C(=O)Nc1ccccc1` [Compound 42, 1-(1-Ethylpropyl)-1-hydroxy-3-phenylurea], the “%I” value in assay [3] (50 mg/Kg) is 4%. Also, the “% Inhibition 1 hour” value in assay [1] (1 hour post dose) was 98% and 100%. Moreover, the “% Inhibition 2 hour” value in assay [1] (2 hour post dose) is 100%. Moreover, the “% Inhibition 4 hour” value in assay [1] is 97% and 100% and -91%. In assay [1], the “% Inhibition 6 hour” value was 78% and 85% and 91% and -150%. The inhibition at 5 mg/kg in assay [1] (setting [4]) and in assay [1] (setting [5]) was 99% each time.
On to `CCOCCN(O)C(=O)Nc1ccccc1` [Compound 45, 1-(2-ethoxyethyl)-1-hydroxy-3-phenylurea], for which the “%I” value in assay [3] (50 mg/Kg) is listed as 6%.
